From US10458988B2, “Biotinylated luminescent probe” (priority 2017, dated 2019)

Legend:
[1] = system: U87-luc cells; experiment: Bioluminescence imaging of luciferase-transfected brain cancer cells in vitro; type: cell-based; conditions: B-YL 100 μg/mL, L-15 medium with MgCl2 5 mM
Description: (§1) Triplicate wells were plated with increasing numbers of either U87 cells without luciferase (a) or with luciferase (b). In each plate: Row 1, wells 1-3, no cells; wells 4-6, 1,875 cells per well. Row 2, wells 1-3, 3,750 cells per well; wells 4-6, 7,500 cells per well. Row 3, wells 1-3, 15,000 cells per well; wells 4-6, 30,000 cells per well. Row 4, wells 1-3, 60,000 cells per well. Incubation buffer, Leibovitz's L-15 medium with MgCl2 (5 mM). Each well was incubated with B-YL (100 μg/mL). Plates were imaged using an IVIS 200 In vivo Imaging System. Escalating luminescence was observed only in wells containing luciferase-expressing cells (b).
(§2) The B-YL substrate can be incubated with the brain cancer cell line U87-luc, which was derived from the parental brain cancer cell line U87 after stable transfection with a luciferase gene. […] B-YL clearly adsorbed across the cell membrane and was oxidized by luciferase. Therefore, B-YL can be used for the detection of the cancer cells by bioluminescence.
(§3) The EGF-B-SA-B-YL complex can be tested for the ability to target and image brain cancer cell lines that overexpress the biomarker EGFR using bioluminescence in vitro. U87 (gray hatch bars) and U87-luc (black bars) cells can be treated with free B-YL (150 μg/m L), untargeted B-SA-B-YL complex (150 μg/mL) or EGFR-targeted EGF-B-SA-B-YL complex (50-150 µg/mL). Bioluminescence were detected immediately. […]

[2] = system: U87 cells; experiment: Bioluminescence imaging of parental brain cancer cells without luciferase in vitro; type: cell-based
Description: as §1, §2, §3

[3] = molecular target: T1, firefly luciferase (Photinus pyralis, UniProt P08659); experiment: Bioluminescence spectrum of probe B-YL with firefly luciferase; type: biochemical
T1 construct: purchased Sigma
T1 sequence (P08659 whole entry): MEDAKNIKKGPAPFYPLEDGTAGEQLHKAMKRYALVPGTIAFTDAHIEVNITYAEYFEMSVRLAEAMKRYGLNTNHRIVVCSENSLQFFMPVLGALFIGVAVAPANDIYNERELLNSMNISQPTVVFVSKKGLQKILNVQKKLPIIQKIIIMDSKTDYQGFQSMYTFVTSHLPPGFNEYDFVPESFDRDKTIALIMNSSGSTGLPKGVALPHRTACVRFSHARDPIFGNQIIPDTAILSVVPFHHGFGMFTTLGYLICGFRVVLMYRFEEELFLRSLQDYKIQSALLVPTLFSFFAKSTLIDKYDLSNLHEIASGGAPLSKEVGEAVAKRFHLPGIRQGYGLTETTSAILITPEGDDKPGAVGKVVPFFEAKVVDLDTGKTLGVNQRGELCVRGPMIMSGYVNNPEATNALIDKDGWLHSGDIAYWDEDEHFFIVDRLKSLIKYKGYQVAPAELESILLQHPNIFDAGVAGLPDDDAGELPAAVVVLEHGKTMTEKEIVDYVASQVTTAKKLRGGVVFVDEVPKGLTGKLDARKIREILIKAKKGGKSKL
Description: After the synthesis of the biotinylated probe, B-YL, the probe can be evaluated with a commercially available firefly luciferase. […] The mechanism for generating bioluminescence is shown in Scheme 2.
In a well of 96 quartz plate (500 μl), HEPES buffer (30 mM) solution (400 μl, pH=7.7) containing MgSO4 (5.0 mM), ATP (2.6 mM), DTT (3.5 mM), CoA (1.5 mM) and commercially available firefly luciferase (40 μg/ml), was prepared. The probe B-YL was then added and mixed to a final concentration (32 μM). Bioluminescence spectrum of B-YL was then taken immediately with instrument SynergyMx (BioTek, VT).

In the case of “6-(3-N—{N-[5-(Hexahydro-2-oxo-1H-thieno[3,4-d]imidazol-4-yl)-1-oxopentyl]-, [3aS-(3aα,4β, 6aα)]}-aminoethyl-poly(ethylene glycol)21-oxyethyl-1H-1,2,3-triazol-5-yl-methylamino-oxomethyl-amino)-2-benzothiazolyl]-4,5-dihydro-,(4S)-4-thiazolecarboxylic acid [B-YL]”, the “number of U87-luc cells at which bioluminescence signal was detected (FIG. 1b)” value [1] is reported as “at least 7,500 cells per well”, the “bioluminescence activity in parental U87 cells (FIG. 1a)” value ([2]; B-YL 100 μg/mL, 0-60,000 cells per well, L-15 medium with MgCl2 5 mM) is reported as “did not reveal bioluminescence activity regardless of the number of cells” and the “conversion to bioluminescence photons by U87 cells (FIG. 2)” value ([2]; U87 cells without luciferase) is reported as “Neither of the complexes (B-SA-B-YL or EGF-B-SA-B-YL) nor free B-YL were converted to bioluminescence photons”. For the same substance, the “substrate of firefly luciferase” value ([3]; commercial firefly luciferase) was “found to be a substrate of firefly luciferase” and the bioluminescence maximum emission ([3]; commercial firefly luciferase 40 μg/ml, B-YL 32 μM, HEPES buffer pH 7.7) was 590 nm.
